Consider three compounds from patent publication US20100099640A1, “TISSUE DEGENERATION PROTECTION” (priority 2007, published 2010).

In data set [1] the test system is atherosclerotic plaques of DKO mice. Put plainly: Atherosclerosis: morphometric and immunohistochemical analysis of aortic root cross sections of DKO mice. In kind it is in vivo, mouse. As to conditions: 12 weeks. How it is done: Homozygous LDL-receptor-knockout mice (LDLR^(−/−)), heterozygous ob/+, and C57BL6 mice were purchased from Jackson Laboratory, Bar Harbor, Me. LDLR^(−/−) mice were backcrossed into a C57BL6 background to the 10th generation. To obtain DKO mice with combined leptin deficiency (ob/ob) and LDL-receptor deficiency, LDLR^(−/−) and ob/+ mice were crossed. All offspring were genotyped by polymerase chain reaction (PCR) techniques. All mice were housed at 22° C. on a fixed 12/12-hour light/dark cycle. Experimental procedures in animals were performed in accordance with protocols approved by the Institutional Animal Care and Research Advisory Committee. All mice were fed standard chow containing 4% fat (Pavan Service). Food intake was ≈5.7 g/d. Mice (about 50 g) were treated with stevioside (N=14; 10 mg/kg), steviol (N=9; 5 mg/kg) or placebo (N=17) for 12 weeks between 12 and 24 weeks of age. Stevioside (Molecular weight: 804) was dissolved in water (1 mg/ml) and 500 μl of the solution was administered orally. Steviol (Molecular weight: 318) was dissolved in water containing 6% NaHCO3 (1 mg/ml) and 250 μl of the solution was administered orally.
The extent of atherosclerosis was determined by analysis of cross sections from the aortic root. Approximately ten 7-μm frozen sections per staining per animal were used for morphometric and immunohistochemical analysis. Total plaque areas were measured on hematoxylin and eosin stained sections. Lipids were stained with oil-red O, and macrophage areas were stained with an antibody against mouse Mac-3 antigen (Pharmingen), and oxidized LDL with the monoclonal antibody 4E6. Blinded analysis of positive immunostained sections was performed with the Quantimet600 image analyzer (Leica).

For the next data set, the system named is 3T3-L1 adipocytes. Put plainly: Triglyceride (Oil red O) accumulation during differentiation of 3T3-L1 adipocytes. The format is cell-based, mouse. As to conditions: for triglyceride accumulation in adipocytes: 50-micromolar (lowest concentration), added during the 7-days differentiation process; for lipid deposition (triglyceride accumulation) in adipocytes: 200-micromolar (4x higher concentration), added during differentiation, steviol dissolved with DMSO. The method, then:
3T3-L1 mouse preadipocytes were purchased from the American Type Culture Collection (ATCC). They are cultivated in DHG medium (Dulbecco's modified Eagle's medium+High Glucose 4.5 g/l, GibcoBRL) supplemented with 10% FCS (foetal calf serum, GibcoBRL) and incubated a 37 C+5% CO2 incubator in a humidified atmosphere. For pre-adipocyte differentiation, 3T3-L1 cells were seeded at 50% confluence 3 days before the beginning of the differentiation programme. Confluent cell monolayers (day 0) are switched for 48 h to media containing the adipogenic cocktail: “DHG-L1” medium (DHG that contains 1.5 g/l NaHCO3) supplemented with 10% FCS, 5 μg/ml insulin, 300 μM dibutyryl-cyclicAMP (dbcAMP) and 1 μM dexamethasone. The cells were then refeeded every other day with DHG-L1 containing 10% FCS and 5 μg/ml insulin. At the end, 80-90% of cells were differentiated. […]
To characterize the state of (de)differentiation obtained in the presence of the molecules of interest, triglycerides present in the cells were stained with Oil red O (a dye of the neutral lipids). The absorbance of cell monolayers at 490 nm was measured in a spectrophotometer.

In data set [2] the test system is mouse pancreatic islets, β-cell line INS-1. The following applies: direct action on β-cells; cited from earlier work.
For data set [3] the following is noted: cited from earlier work.
Data set [4] deals with everted gastrointestinal sacs of rats and Caco-2 cell layers. The following applies: free steviol formed in the colon; cited from earlier work.
[5] abbreviates: steviol 5 mg/kg vs stevioside 10 mg/kg orally.
Where [6] appears, read: stevioside 10 mg/kg or steviol 5 mg/kg orally.

For the compound `C=C1C[C@@]23CC[C@H]4[C@@](C)(CCC[C@@]4(C)C(=O)O)[C@@H]2CC[C@]1(O)C3` [steviol, Kaur-16-en-18-oic acid, 13-hydroxy-, (4α)-], in data set [1] (setting [5]), the “SMC content of plaques, compared to stevioside” value is given as “increased somewhat more” and the “plaque lipids, compared to stevioside” value is listed as “decreased somewhat more”. Further, in data set [1] (setting [6]), the “lipid deposition in plaques” value was “reducing”, the “macrophage deposition in plaques” value was “reducing”, the “oxLDL deposition in plaques” value is listed as “reducing” and the plaque volume entry is recorded as “lowered”. In data set [1] (setting [6]), the “smooth muscle cell (SMC)-to-macrophage ratio (proxy for plaque stability)” value was “increased”. Besides, in the data set with 3T3-L1 adipocytes, the “triglyceride accumulation in adipocytes” value is “did not significantly reduce” and the “lipid deposition (triglyceride accumulation) in adipocytes” value is “did not have an effect”. Moreover, in data set [2], the insulin secretion entry is recorded as “stimulation of insulin secretion”. Moreover, the “transformation by human microsomes relative to rat microsomes” value in data set [3] (human vs rat liver microsomes) is on record as “about 4 times lower”. In data set [3] (in vitro incubation with human liver microsomes), the “transformation of steviol by human microsomes” value is “very low”. The “absorption of free steviol” value in data set [4] is on record as “easily absorbed”.
For the compound `C=C1C[C@@]23CC[C@H]4[C@@](C)(CCC[C@@]4(C)C(=O)OC4OC(C(=O)O)C(O)C(O)C4O)[C@@H]2CC[C@]1(O)C3` (stereo partly drawn) [steviol glucuronide, steviol-19-O-β-D-glucuronide], the “triglyceride accumulation in adipocytes” value in the data set with 3T3-L1 adipocytes is given as “inhibited significantly”.
As for “Kaur-16-en-18-oic acid, 13-[(O-b-D-glucopyranosyl-(1→2)-O-[b-D-glucopyranosyl-(1→3)]-b-D-glucopyranosyl)oxy]-, b-D-glucopyranosyl ester, (4a)- [rebaudioside]”, in the data set on 3T3-L1 adipocytes, the “triglyceride accumulation in adipocytes” value is listed as “did not significantly reduce” and the “lipid deposition (triglyceride accumulation) in adipocytes” value is recorded as “inhibited”.
